Patent US20230027620A1, “PENTAPEPTIDE AND METHODS OF USE THEREOF” (THE BOARD OF TRUSTEES OF THE UNIVERSITY OF ILLINOIS, priority 2019, published 2023)

What was measured:
pERK1/2 = assay: Western blot for pERK1/2 after wounding; assay type: cell-based; conditions: wounded cells, compared with wounding alone
Protocol: Western Blot. Western blot was performed following standard methods. Protein lysate (20 μg) was boiled in NuPAGE™ LDS sample buffer (Invitrogen, Carlsbad, Calif.) for 10 minutes and then subjected to electrophoresis on 12% NuPAGE™ Bis-Tris gels (Invitrogen, Carlsbad, Calif.), followed by transfer to nitrocellulose membranes (Amersham Protran, GE Healthcare, Pittsburgh, Pa.). Membranes were then blocked with Tris-buffered saline containing 3% nonfat dry milk for 1 hour and incubated with primary antibody against pERK1/2 (Cell Signaling, Danver, Mass.) (1:1000) overnight at 4° C. After washing in 0.05% Tris-buffered saline containing 0.05% polysorbate 20, membranes were then incubated for 1 hour with goat anti-rabbit-HRP (BD Biosciences, San Jose, Calif.) (1:2000) as the secondary antibody. The membranes were developed using X-ray film and ECL Pro solution (PerkinElmer, Waltham, Mass.). Beta-actin was used as an internal control.
The level of activation/phosphorylation of ERK with and without wounding and with and without Hst5 application were investigated to determine whether the cellular signaling pathways underpinning the pro-migratory effects of Hst5 were similar to those of Hst1 in other epithelial cell types. Wounding causes an increased in phosphorylated form of ERK1/2 (p-ERK1/2). […]

[1] = test system: epithelial cell migration; assay: In vitro scratch assay, truncation and scrambled peptide series (FIG. 1; cell line not given); assay type: cell-based; conditions: 80 μM; FIG. 1; vs untreated control
Protocol: Peptides were tested for efficacy in accelerating scratch closure rates. Negative controls included untreated and multiple scrambled peptide (SP) controls. All peptides were tested at 80 μM concentration. All experiments were performed in triplicate with three technical replicates for each experiment. Statistical significance was determined by one-way ANOYA with Dunnett's post-hoc test. *p<0.05; **p<0.01; ***p<0.001. Relative closure=(% closure of treated sample)/(% closure of Untreated control).
In Vitro Scratch Assay. HCE, HCLE, HELA and MCF-7 cells were cultured in a 24-well plate at 2.5×10^5 (cells/well) seeding density, and were grown to confluence on a 24-well plate. Subsequently, a straight-line scratch mark was made with a sterile P200 pipette tip. The cells were then washed twice with phosphate-buffered saline (PBS) to remove cellular debris. Wounded areas were then treated with the peptides provided in Table 5 at various concentrations in standard medium with reduced serum conditions (0.5% FBS in MEM medium (HCE), growth factor-free K-SFM media (HCLE), 1% FBS in DMEM medium (HeLa) and 0.5% FBS in RPMI 1640 medium (MCF-7)). Scratches were photographed microscopically at 4× magnification (Image Express Micro, Molecular Devices, San Jose, Calif.) every hour over the course of the experiment. The wound area at each time-point was measured using Image J software (Image J 1.47v, NIH, Thornwood, Bethesda, Md.). Relative wound closure was calculated by dividing the closure of the treated wound by that of the untreated wound. For all the experiments including truncated histatin-5, a final concentration of 80 μM was used. PD98059 (Calbiochem, San Diego, Calif.) at final concentration of 50 μM was used as a specific inhibitor of MEK. PD98059 was added to cell cultures at the same time as histatin peptides.
To identify the residues of Hst5 required for epithelial cell migration, serial truncation experiments were performed, progressively deleting residues in Hst5. […] All peptides were tested at 80 μM. […] Thus, the SHRGY (SEQ ID NO:2) sequence is necessary and sufficient to promote epithelial migration rates in in vitro scratch assays.

[2] = test system: corneal epithelial wound in C57BLl6J mice; assay: Murine corneal epithelial injury (wound healing) model; assay type: in vivo
Protocol: Wounded areas were treated with Hst5, SHRGY (SEQ ID NO:2) or SP1 peptides (n=7 for each group), each tested at 80 μM concentration. Wound areas at multiple time points were measured using Image J software. […] Statistical significance was determined by a two-way ANOVA with Bonferroni post-hoc test. **P<0.01, ***P<0.001. % Wound area=(Wound area at time X/Wound area at time 0)×100.
Wound Healing Assay. Corneal wounding experiments in mice were conducted in compliance with the Association for Research in Vision and Ophthalmology (ARVO) Statement for the Use of Animals in Ophthalmic and Vision Research. The protocol was approved by the Animal Care & Use Committee of the University of Illinois at Chicago. Twelve-to-nineteen week old C57BLl6J (Jackson Laboratory, Bar Harbor, Me.) mice were anesthetized with intraperitoneal injection of ketamine (100 mg/kg) and xylazine (5 mg/kg). After applying two drops of topical 0.5% proparacaine, a 2.0-mm area of the central epithelium was demarcated using 2-mm disposable biopsy punch and removed by an AlgerBrush II (The Alger Company, Lago Vista, Tex.). In the treatment (n=7) or the control (n=7) group, Histatin=5 (80 μM), SHRGY peptide (SEQ ID NO:2; 80 μM), or SP1 (80 μM) was applied to the cornea three times a day. At 0, 18 and 24 hours, the corneas were stained with fluorescein (FUL-GLO® Fluorescein Sodium ophthalmic strips, Akorn, Lake forest, Ill.) and photographed using a NIKON FS-2 photo-slit lamp with a NIKON D200 camera (Melville, N.Y.). Wound sizes were compared with the baseline for each mouse and the percentages of wound closure was measured using Image J software.
For immunofluorescence, excised whole mouse eye was snap frozen in optimal cutting temperature compound (OCT; (Fisher Healthcare, Galderma, Calif.). The frozen tissues were cut into 10 μm cryosections (ThermoScientific NX50 Cryomicrotome, Waltham, Mass.) and subsequently were mounted on Superfrost plus slides (Thermofisher, Waltham, Mass.). Slides were fixed for 20 minutes in methanol, washed several times with PBS, stained with DAPI for 2 minutes, and further washed with PBS and deionized water. The slides were then mounted in Fluoro gel with Tris buffer (Electron Microscopy Sciences, Hattfield, Pa.) and observed under a confocal microscope (Zeiss LSM 710 Confocal Microscope, Oberkochen, Germany) using a 10× objective.
Thus, Hst5 and SHRGY (SEQ ID NO:2)-containing peptides can enhance wound healing in a well-vetted model of murine corneal epithelial injury.

In the case of DSHAKRHHGYKRKFHEKHHSHRGY [Hst5], the “pERK1/2 levels (Western blot)” value (pERK1/2) is reported as “further increased”, the “scratch (wound) closure rates, relative closure” value [1] is reported as “significant increases in scratch closure rates” and the “% remaining corneal wound area compared to baseline” value ([2]; 80 μM, 18 hours and 24 hours, compared to SP1, n=7) is reported as “statistically significant improvement”. For the same sequence, the “corneal wound size, histologic analysis (DAPI cross sections)” value ([2]; compared to SP1-treated controls) was “reductions in corneal wound size” and the “corneal wound closure rates” value ([2]; topical, 80 μM, three times a day, vs scrambled peptide control SP1) was “significant improvement in corneal wound closure rates”.
